Measurements reported in patent publication US7479385B2, “Sugar kinases with expanded substrate specificity and their use” (Wisconsin Alumni Research Foundation, priority 2003, dated 2009).
Read-outs that look alike come from different tables or passages of the source.

Tests used:
L. lactis GalK Y385H = L. lactis GalK Y385H (Lactococcus lactis subsp. lactis, UniProt Q9R7D7, Y385H); conditions: cited from earlier work
[1] = target: T1, E. coli GalK double mutant M173L-Y371H (Escherichia coli, UniProt P0A6T3, M173L/Y371H); assay: Steady-state kinetic profiling (DNS assay), Table 2, M173L-Y371H; type: biochemical; conditions: sugar 1-8 mM, saturating ATP (14 mM)
T1 construct: His-tag (concluded from Ni-NTA purification and vector pET15b); made in house
Source text: (§1) Characterization of GalK Mutants. […] The mutant enzymes were purified by using metal affinity chromatography on Ni-NTA Spin Columns (QIAGEN, Valencia, Calif.) and fractions containing homogenous protein were collected, concentrated and quantified using the Bradford protein assay. The DNS assay was used to assess the substrate specificity of the purified GalK mutants as previously described. […] For each sugar, the DNS assay was used to monitor the reaction progress and control assays in the absence of enzyme or sugar were performed in parallel. Standard curves for each sugar were prepared as described. To assess general percent conversion, each reaction contained 15.0 (M enzyme, 8 mM sugar, 14 mM ATP and 3.5 mM MgCl2. The reactions were incubated at 37° C. for 3 hrs after which the reactions were quenched with MeOH, centrifuged (10 min, 12,000 rpm) and then the supernatant (diluted 20-fold) submitted for LC-MS and MS/MS analysis. For monosaccharide kinetic data determination, the sugar concentration was varied over a range of 1-8 mM, under saturating ATP (14 mM). Reaction progress was assessed via the DNS assay, wherein a change in absorbance at 575 nm as a function of time was obtained and the initial velocity determined by the slope of the linear phase in the progress curve. […]

L. lactis wild-type GalK = target: T2, L. lactis wild-type GalK (Lactococcus lactis subsp. lactis, UniProt Q9R7D7); conditions: in vitro, cited from earlier work
T2 sequence (Q9R7D7 1-399): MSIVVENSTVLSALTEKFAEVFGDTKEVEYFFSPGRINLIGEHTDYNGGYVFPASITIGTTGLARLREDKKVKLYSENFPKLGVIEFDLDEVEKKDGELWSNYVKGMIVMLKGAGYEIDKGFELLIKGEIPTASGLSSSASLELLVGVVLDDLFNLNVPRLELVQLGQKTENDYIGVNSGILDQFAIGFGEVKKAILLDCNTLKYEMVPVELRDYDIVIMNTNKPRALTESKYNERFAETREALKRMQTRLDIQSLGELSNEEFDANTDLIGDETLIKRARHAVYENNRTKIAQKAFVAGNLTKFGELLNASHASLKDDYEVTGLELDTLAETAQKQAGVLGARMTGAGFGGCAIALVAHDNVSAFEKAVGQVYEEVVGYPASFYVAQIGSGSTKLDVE

[2] = target: T3, E. coli GalK mutant M173L (Escherichia coli, UniProt P0A6T3, M173L); assay: Steady-state kinetic profiling (DNS assay), Table 2, M173L; type: biochemical; conditions: sugar 1-8 mM, saturating ATP (14 mM)
T3 construct: His-tag (concluded from Ni-NTA purification and vector pET15b); made in house
Source text: as §1

[3] = target: T4, E. coli GalK M173L mutant (Escherichia coli, UniProt P0A6T3, M173L); assay: Substrate screen / percent conversion of 45 sugars, M173L; type: biochemical
T4 construct: His-tag (concluded from Ni-NTA purification and vector pET15b); made in house
Source text: (§2) Characterization of GalK Mutants. […] The mutant enzymes were purified by using metal affinity chromatography on Ni-NTA Spin Columns (QIAGEN, Valencia, Calif.) and fractions containing homogenous protein were collected, concentrated and quantified using the Bradford protein assay. The DNS assay was used to assess the substrate specificity of the purified GalK mutants as previously described. […] For each sugar, the DNS assay was used to monitor the reaction progress and control assays in the absence of enzyme or sugar were performed in parallel. Standard curves for each sugar were prepared as described. To assess general percent conversion, each reaction contained 15.0 (M enzyme, 8 mM sugar, 14 mM ATP and 3.5 mM MgCl2. The reactions were incubated at 37° C. for 3 hrs after which the reactions were quenched with MeOH, centrifuged (10 min, 12,000 rpm) and then the supernatant (diluted 20-fold) submitted for LC-MS and MS/MS analysis. For monosaccharide kinetic data determination, the sugar concentration was varied over a range of 1-8 mM, under saturating ATP (14 mM). Reaction progress was assessed via the DNS assay, wherein a change in absorbance at 575 nm as a function of time was obtained and the initial velocity determined by the slope of the linear phase in the progress curve. The kinetic data was analyzed using Enzyme Kinetics Module software (SSPS, Inc., Chicago, Ill.) as previously described.
(§3) Characterization of Engineered E. coli GalK Mutants.

GalK mutant Y371H = GalK mutant Y371H (Escherichia coli, UniProt P0A6T3, Y371H); conditions: DNS assay and thin layer chromatography
GalK variant Y371H = target: T5, GalK variant Y371H (Escherichia coli, UniProt P0A6T3, Y371H); assay: Preparative phosphorylation of L-altrose by GalK Y371H, conversion by DNS assay; type: biochemical, E. coli; conditions: within four hours, 37° C., Y371H 150 μg mL^−1
T5 construct: His-tag (concluded from Ni-NTA purification and vector pET15b); made in house; host or cells: E. coli BL21-Gold (DE3), vector pET15b
Procedure: Preparative phosphorylation of L-altrose and product characterization. […] To this solution, ATP (125 mg, 0.23 mmol), MgCl2.6H2O (15.3 mg, 0.07 mmol) were added, the mixture incubated at 37° C. for 5 min, the reaction initiated via the addition of enzyme (Y371H) to a final concentration of 150 μg mL^−1 and reaction progress monitored by TLC. After completion, the mixture was diluted 5-fold in ddH2O and applied to a 200 mL anion exchange column (Q-Sepharose fast flow, Amersham, Piscataway, N.J.). The column was eluted with a gradient of 0-400 mM NaCl and the active fraction was collected and evaporated under reduced pressure. The crude product was desalted on a P-2 gel filtration column (The Nest Group, Southboro, Mass.) to give 16.1 mg of purified product (yield: 52%). [α]D=3.5° (c=1, H2O) ^1H NMR (D2O): 5.48 (dd, J=8.6, 1.8 Hz, 1H), 4.14 (dd, 5.3, 3.3 Hz, 1H), 3.99 (m, 1H), 3.98 (dd, J=4.3, 1.8 Hz, 1H), 3.91 (d, J=3.3, 1H), 3.89 (m, 1H), 3.84 (dd, J=12.1, 7.8 Hz, 1H); ^13C NMR (D2O): 94.10, 76.23, 70.70, 69.99, 65.68, 62.21; ^31P NMR (D2O): 3.77; MS: calculated for C6H13O9P 260.0, found m/z 259.0 [M−H]^−.
Confirmation of L-sugar conversion. […] To confirm the evolved enzyme retains regio- and stereoselectivity with L-sugar substrates, a representative L-sugar reaction product was further characterized. […]

wild-type E. coli GalK [4] = target: T6, wild-type E. coli GalK (Escherichia coli, UniProt P0A6T3); assay: Kinetics and substrate specificity of wild-type GalK with sugar substrates (DNS assay), Table 1; type: biochemical
T6 construct: made in house
T6 sequence (P0A6T3 1-382): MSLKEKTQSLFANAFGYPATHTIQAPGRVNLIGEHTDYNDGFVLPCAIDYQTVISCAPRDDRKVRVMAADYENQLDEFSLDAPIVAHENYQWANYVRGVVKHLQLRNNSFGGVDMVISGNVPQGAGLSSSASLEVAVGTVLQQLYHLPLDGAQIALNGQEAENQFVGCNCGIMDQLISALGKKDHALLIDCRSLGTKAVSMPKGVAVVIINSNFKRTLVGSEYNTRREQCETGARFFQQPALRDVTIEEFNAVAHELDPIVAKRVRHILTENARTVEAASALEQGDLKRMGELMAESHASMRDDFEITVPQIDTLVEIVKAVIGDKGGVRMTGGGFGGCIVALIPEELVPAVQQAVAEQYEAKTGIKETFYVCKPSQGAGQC

[5] = target: T7, E. coli GalK Y371H mutant (Escherichia coli, UniProt P0A6T3, Y371H); type: biochemical
T7 construct: His-tag (concluded from Ni-NTA purification and vector pET15b); made in house; host or cells: E. coli BL21-Gold (DE3), vector pET15b
Source text: as §2, §3

wild-type E. coli GalK [6] = target: T6, wild-type E. coli GalK; type: biochemical
Source text: as §2, §3

Y371H-M173L GalK = target: T8, Y371H-M173L GalK (Escherichia coli, UniProt P0A6T3, M173L/Y371H); assay: In vivo conversion of fed unnatural sugars to sugar-1-phosphates in E. coli host overexpressing GalK double mutant; type: cell-based; conditions: sugar fed at 4 mM to E. coli overexpressing Y371H-M173L GalK, 16° C., 16 hr; fluorescence HPLC after labelling with 50
T8 construct: His-tag (concluded: same plasmid pGalKMLYH in pET-15b whose product was purified on Ni-NTA); expressed in transfected cells; host or cells: E. coli host carrying pGalKMLYH (pET-15b), IPTG-induced at 16 °C
Source text: FIG. 9. In vivo GalK-catalyzed sugar-1-phosphate production. (a) Experimental overview using 6-azido-6-deoxy-D-galactose (22) as an example: 22 is fed to an E. coli host expressing the M173L-Y371H GalK double mutant and the reactants and products subsequently labeled using a […] with the fluorescent tag 50. (b) HPLC chromatographs of bioconversions: i)22 with Y371H-M173L GalK; ii)46 with Y371H-M173L GalK; iii) 22 with wild-type GalK. MS: 50, calculated for C20H25N3O3S 387.2, found m/z 386.1 [M−H]^−; 51, calculated for C26H37N6O11PS 672.2, found m/z 671.2 [M−H]^−; 52, calculated for C26H36N6O8S 592.2, found m/z 591.2 [M−H]
In Vivo Conversion Analysis. […] The reaction mixture was subsequently centrifuged to remove CuI and the supernatant (diluted 2-fold) directly analyzed by HPLC and LC-MS calculated for C26H37N6O11PS 672.20, found m/z […] 671.20.
To assess the Y371H-M173L GalK-catalyzed in vivo production of unnatural sugar-1-phosphates (FIG. 9a), the unnatural sugars (22 or 46, 4 mM final concentration) were fed to an E. coli host (40 mL culture) which overexpressed the promiscuous GalK. After a designated time, the extracts were analyzed via the specific attachment of a fluorescent tag (50), to both starting material (22 or 46) and desired sugar-1-phosphate products, using 1,3-dipolar cycloaddition. […]

[7] = target: T9, E. coli double M173L-Y371H mutant GalK (Escherichia coli, UniProt P0A6T3, M173L/Y371H); assay: Substrate screen / percent conversion of 45 sugars, M173L-Y371H; type: biochemical
T9 construct: His-tag (concluded from Ni-NTA purification and vector pET15b); made in house
Source text: as §2, with “The reactions were incubated at 37° C. for 3 hrs after which the reactions were quenched with MeOH, centrifuged (10 min, 12,000 rpm) and then the supernatant (diluted 20-fold) submitted for LC-MS and MS/MS analysis.” left out
as §3

## O=C[C@H](O)[C@@H](O)[C@H](O)[C@H](O)CO [D-Glc (27), D-glucose]
L. lactis GalK Y385H
  activity with L. lactis GalK Y385H (in words): weak activity
[1]; read-out: Km, M173L-Y371H (D-Glc column)
  Km: 4 mM
[1]
  Vmax, M173L-Y371H: 0.02 (±0.01) mM min^−1
L. lactis wild-type GalK
  conversion / activity with L. lactis wild-type GalK (in words): weak activity
L. lactis wild-type GalK; listed as D-glucose (27)
  conversion / activity with L. lactis wild-type GalK (in words): in vitro conversion
[2]; read-out: Km, M173L (D-Glc column)
  Km: 2.6 mM
[2]
  Vmax, M173L: 0.02 (±0.01) mM min^−1
[3]; in 3 hr, 37° C., 8 mM sugar, 14 mM ATP, 3.5 mM MgCl2, 15.0 μM enzyme
  conversion by M173L: 20%

## O=C[C@H](O)[C@@H](O)[C@@H](O)[C@@H](O)CO [L-Alt (16), L-altrose]
GalK mutant Y371H
  kinase activity / turnover by GalK Y371H (in words): substantial degree of kinase activity
GalK variant Y371H
  conversion of L-altrose: 91%
wild-type E. coli GalK [4]
  substrate of wild-type GalK (in words): failed as wild-type GalK substrates

## [N-]=[N+]=NC[C@@H](O)[C@@H](O)[C@H](O)[C@@H](O)C=O [6-azido-6-deoxy-D-glucose (46), 6-azido-6-deoxy-D-glucose]
[5]
  substrate of Y371H (in words): failed
wild-type E. coli GalK [6]
  substrate of wild-type E. coli GalK (in words): not a substrates
Y371H-M173L GalK
  in vivo conversion to sugar-1-phosphate: ~15%
[7]
  kinase activity of M173L-Y371H double mutant (in words): accept
[7]; in vitro
  in vitro yield (conversion) quoted for comparison with in vivo: ~50%
[7]; in vitro, in 2 hrs
  in vitro conversion by M173L-Y371H: ~15%
[3]
  substrate of M173L (in words): failed
